This passage reports IC50 results from US9862724B2, “Pyrazolo[1,5-a]pyrimidine-based compounds, compositions comprising them, and methods of their use” (LEXICON PHARMACEUTICALS, INC., priority 2013, dated 2018).

pIC50: −log10 of the molar value. Read-outs that look alike come from different tables or passages of the source. Bounds are passed on as bounds.

Assay [1] addresses T1, AAK1 (full-length human protein) (Homo sapiens, UniProt Q2M2I8).
T1 construct: NP_055726.2
Briefly: P81 filter plate assay. In kind it is biochemical. The conditions noted are these: 0.2 nM 2x AAK1, Mu2 substrate, 33P-ATP; class symbols. The protocol: Compounds were serially diluted into a Labcyte LDV plate (Labcyte, cat# LP-0200) using a Mutiprobe (PerkinElmer) and Biomek FX (Beckman Coulter) so that the highest compound concentration was at 96 μM. Compounds were then pinged (75 nL per well) into a Greiner 384-well reaction plate (Greiner, #781076) using an ECHO 550 Liquid Handler (Labcyte). A total of 12 μl reaction buffer (IMAP buffer containing Tween and DTT, from Molecular Devices) was then added to each well of columns 1 and 13 for the negative controls and 12 μl of 2×AAK1 (0.2 nM full-length human protein, NCBI accession no. NP_055726.2) was added to the remaining wells. Enzyme was then pre-incubated with compound for 10 minutes at RT. Reactions were initiated upon Minitrak (PerkinElmer) addition of 12 μl substrate mix containing 2×Mu2 (0.2 μM, full length human protein), 2× cold ATP (2 μM), and 1.3 μCi of hot ^33P-ATP. Reactions proceeded for one hour at RT. Meanwhile, Millipore 384-well P81 filter plates (Millipore, catalog # MZPHN0W10) were placed on a plate washer (Zoom ZW, from Titertek) and pre-wet with 50 μl […] phosphoric acid. Kinase reactions were then stopped upon addition of 24 μl of 2% phosphoric acid to each well and the Minitrak was then used to transfer 40 μl from each well into the pre-wet Millipore 384-well P81 filter plates. Reaction mixtures were incubated for 10 minutes at room temperature in the P81 plates, followed by washing five times with 100 μl/well of 1% phosphoric acid using the Zoom filter washer. The bottom of each filter plate was sealed followed by addition of 20 μl Microscint 40 to each well, sealing the top of the plates with Flashplate cover, and then waiting one hour until reading on the TopCount (PerkinElmer).

In a further assay the target is T2, AAK1 (Homo sapiens, UniProt Q2M2I8).
T2 construct: expressed in transfected cells; host or cells: HEK293F
Kind of assay: HEK281 cell-based assay (phospho-mu2 Western blot in transfected HEK293F cells). The conditions noted are these: HEK293F cells transfected with human AAK1 and AP2M1, 3 hours, read-out: CBA IC50. The protocol: HEK293F cells were cultured in media containing DMEM (Gibco, cat. #11965), 10% FBS (SAFC Biosciences, cat. #12103C), 1×GPS (glutamine, penicillin and streptomycin). On day one, cells were plated on a 10 cm dish so that they are ˜80% confluent at time of transfection. Roughly 12 million cells were in a 10 cm dish at time of transfection. On day two, each dish was transfected with 48 ug DNA and 144 ul Lipofectamine 2000 (Invitrogen, cat.#11668-019). The DNA was comprised of a mixture (per 10 cm dish) containing 3 ug AAK1/HA/pIRES (full length human, NCBI accession no. NP_055726.2), 45 μg Flag/AP2MI/pcDNA (full length human), and 1.5 ml OPTI-MEM. The Lipofectamine 2000 is made up of a mixture (per 10 cm dish) containing 144 μl Lipofectamine 2000 and 1.5 ml OPTI-MEM. Each mixture was transferred to individual 15 ml tubes and incubated at room temperature for 5 minutes, and then the two mixes were combined and incubated at room temperature for 20 minutes. Growth media was then aspirated from each 10 cm plate and replaced with 10 ml of DMEM+10% FBS (no GPS). Finally, 3 ml DNA/Lipofectamine mix was added to each 10 cm dish and mix gently followed by incubate of plate overnight at 37° C. and 5% CO2.
On day three, compounds were diluted in 100% DMSO at 1000× final concentration, followed by 3-fold serial dilutions for a total of 5 concentrations tested. Four compounds were tested per 10 cm dish. One ul of each compound dilution was then pipetted into a deep-well, 96-well plate, followed by addition of 500 μl DMEM+0.5% FBS into each well for a 2× final concentration of each compound. Cells were resuspended in a 10 cm dish by simple pipetting (HEK293 cells come off the plate that easy at this point) and then transferred to a 50 ml conical tube and pelleted by centrifugation at 1000 rpm for 5 min. Cell pellets were then resuspended in 2.75 ml DMEM+0.5% FBS per 10 cm dish and 100 μl of cell suspension transferred into each well of 96-well TC plate. Finally, 100 μl of 2× compound diluted in DMEM+0.5% FBS was then added into wells containing cell suspension for a 1× final concentration. Plates were then incubated at 37° C. and 5% CO2 for 3 hours followed by transferring of cell suspensions from each well into 12-tube PCR strips. The PCR strips were spun in a tip rack at 1000 rpm for 5 minutes to pellet cells and media was then removed by pipetting without disturbing the cell pellet.
To prepare for Western Blot analysis, cell pellets were resuspend in 40 ul 1×LDS-PAGE sample buffer (Invitrogen, cat.# NP0008)+2× Halt phophatase and protease inhibitor cocktail (Thermo Scientific, cat.#1861284), followed by sonicating each with microtip sonicator set at 5 for 8-10 seconds. Five ul of 10× NuPage Sample Reducing Agent (with […]) was to each sample followed by heat denaturing at 70 C for 10 min on PCR machine. A total of 10 μl per sample was loaded into each lane of a 4-20% Tris-Glycine Criterion 26-well gel (Biorad, cat.#345-0034) for the phospho-mu2 blot and 10 μl per lane in a 4-12% Bis-Tris (+MES buffer) NuPAGE 26-well gel (Invitrogen, cat.# WG1403BX10) for the mu2 blot. For controls, 2 ng of phospho-mu2 or 20 ng mu2/Flag proteins were loaded in the last well of each gel. After SDS-PAGE, samples on each gel were transferred to PVDF membrane using an iBlot and membranes were blocked for one hour in TBST+5% milk, followed by wash 3× for 5-10 min with TBST. Criterion gels were probed with rabbit anti-phospho-mu2 (1:5000; a rabbit polyclonal antibody produced by New England Peptide and affinity purified at Lexicon) in TBST+5% BSA, whereas, NuPAGE gels were probed with mouse anti-Flag (1:500; Sigma, cat.# F1804) in TBST+5% milk, and these primary antibodies were incubated overnight at 4° C. on a rocker. […]

T1 sequence (Q2M2I8 1-863 isoform Q2M2I8-2): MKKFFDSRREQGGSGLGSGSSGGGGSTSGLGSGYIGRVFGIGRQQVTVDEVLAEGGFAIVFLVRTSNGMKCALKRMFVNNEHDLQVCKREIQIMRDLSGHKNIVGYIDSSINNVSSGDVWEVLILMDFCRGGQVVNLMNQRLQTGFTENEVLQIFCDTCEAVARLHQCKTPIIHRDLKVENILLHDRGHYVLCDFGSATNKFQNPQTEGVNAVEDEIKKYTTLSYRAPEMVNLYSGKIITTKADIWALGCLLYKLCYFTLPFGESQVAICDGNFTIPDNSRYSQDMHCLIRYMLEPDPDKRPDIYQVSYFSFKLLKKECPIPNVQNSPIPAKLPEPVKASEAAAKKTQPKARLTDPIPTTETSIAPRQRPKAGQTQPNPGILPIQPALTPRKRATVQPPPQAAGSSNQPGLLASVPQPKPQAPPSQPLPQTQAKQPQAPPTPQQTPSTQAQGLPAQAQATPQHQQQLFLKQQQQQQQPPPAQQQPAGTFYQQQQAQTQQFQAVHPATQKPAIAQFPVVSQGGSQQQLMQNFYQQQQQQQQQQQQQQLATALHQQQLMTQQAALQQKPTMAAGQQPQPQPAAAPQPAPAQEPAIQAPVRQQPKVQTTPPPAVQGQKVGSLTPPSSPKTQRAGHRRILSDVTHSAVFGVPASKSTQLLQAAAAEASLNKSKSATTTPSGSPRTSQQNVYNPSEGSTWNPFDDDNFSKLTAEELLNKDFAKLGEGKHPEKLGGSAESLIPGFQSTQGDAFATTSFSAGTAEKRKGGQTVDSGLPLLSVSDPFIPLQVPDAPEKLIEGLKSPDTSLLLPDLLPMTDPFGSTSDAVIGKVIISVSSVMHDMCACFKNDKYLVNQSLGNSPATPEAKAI
T2 sequence (Q2M2I8 1-863 isoform Q2M2I8-2): as above

Broadly, the pIC50 is the IC50 on a negative log10 scale, so that one unit is a factor of ten. As to `COc1ncccc1-c1cnn2ccc(-c3ccn(CCOC(C)C)c(=O)c3)nc12` [1-(2-isopropoxyethyl)-4-(3-(2-methoxypyridin-3-yl)pyrazolo[1,5-a]pyrimidin-5-yl)pyridin-2(1H)-one], the negative logarithm of the IC50 (pIC50) is ≥ 7.00 in assay [1] and ≥ 8.00 on AAK1 (class symbols).
The corresponding values for `COCCn1ccc(-c2ccn3ncc(-c4cccnc4OC)c3n2)cc1=O` [1-(2-methoxyethyl)-4-(3-(2-methoxypyridin-3-yl)pyrazolo[1,5-a]pyrimidin-5-yl)pyridin-2(1H)-one] are ≥ 8.00 and ≥ 8.00.
Consider `COc1ncccc1-c1cnn2ccc(-c3ccn(CCC(C)(C)C)c(=O)c3)nc12` [1-(3,3-Dimethylbutyl)-4-(3-(2-methoxypyridin-3-yl)pyrazolo[1,5-a]pyrimidin-5-yl)pyridin-2(1H)-one], for which the pIC50 (in assay [1]; on AAK1 (class symbols)) was ≥ 8.00 throughout.
With `COc1ccc(F)cc1-c1cnn2ccc(-c3ccn(CCC(C)(C)C)c(=O)c3)nc12` [1-(3,3-Dimethylbutyl)-4-(3-(5-fluoro-2-methoxyphenyl)pyrazolo[1,5-a]pyrimidin-5-yl)pyridin-2(1H)-one], the pIC50 (in assay [1]; at AAK1 (class symbols)) was ≥ 8.00 in each case.
Consider `COc1ncc(F)cc1-c1cnn2ccc(-c3ccn(CCC(C)(C)C)c(=O)c3)nc12` [1-(3,3-dimethylbutyl)-4-(3-(5-fluoro-2-methoxypyridin-3-yl)pyrazolo[1,5-a]pyrimidin-5-yl)pyridin-2(1H)-one], for which the pIC50 (in assay [1]; on AAK1 (class symbols)) was ≥ 8.00 in each case.
As to `COc1ncccc1-c1cnn2ccc(-c3ccn(CC(C)C)c(=O)c3)nc12` [1-isobutyl-4-(3-(2-methoxypyridin-3-yl)pyrazolo[1,5-a]pyrimidin-5-yl)pyridin-2(1H)-one], the pIC50 (in assay [1]; at AAK1 (class symbols)) was ≥ 8.00 throughout.
In the case of `COc1nc(C)ccc1-c1cnn2ccc(-c3ccn(CCC(C)C)c(=O)c3)nc12` [1-isopentyl-4-(3-(2-methoxy-6-methylpyridin-3-yl)pyrazolo[1,5-a]pyrimidin-5-yl)pyridin-2(1H)-one], the pIC50 (in assay [1]; at AAK1 (class symbols)) was ≥ 8.00 throughout.
For the molecule `COc1ncccc1-c1cnn2ccc(-c3ccn(CCC(C)C)c(=O)c3)nc12` [1-isopentyl-4-(3-(2-methoxypyridin-3-yl)pyrazolo[1,5-a]pyrimidin-5-yl)pyridin-2(1H)-one], the pIC50 (in assay [1]; on AAK1 (class symbols)) was ≥ 8.00 throughout.
On to `CC(C)CCn1ccc(-c2ccn3ncc(C(F)(F)F)c3n2)cc1=O` [1-isopentyl-4-(3-(trifluoromethyl)pyrazolo[1,5-a]pyrimidin-5-yl)pyridin-2(1H)-one], for which the pIC50 at AAK1 (class symbols) is ≥ 7.00.
On the same count and under the same terms, with `CC(C)CCn1ccc(-c2ccn3nccc3n2)cc1=O` [1-isopentyl-4-(pyrazolo[1,5-a]pyrimidin-5-yl)pyridin-2(1H)-one] the figure was ≥ 7.00.
Regarding `COc1cc(-c2ccn3ncc(-c4cc(F)ccc4OC)c3n2)ccn1` [3-(5-fluoro-2-methoxyphenyl)-5-(2-methoxypyridin-4-yl)pyrazolo[1,5-a]pyrimidine], the results for the pIC50 (in assay [1]; on AAK1 (class symbols)) were ≥ 6.00 and ≥ 8.00, respectively.
Turning to `CC(C)CCn1ccc(-c2ccn3ncc(Cl)c3n2)c(Cl)c1=O` [3-chloro-4-(3-chloropyrazolo[1,5-a]pyrimidin-5-yl)-1-isopentylpyridin-2(1H)-one], the pIC50 on AAK1 (class symbols) was ≥ 7.00.
Take `CCOc1ncccc1-c1cnn2ccc(-c3ccn(CCC(C)C)c(=O)c3)nc12` [4-(3-(2-ethoxypyridin-3-yl)pyrazolo[1,5-a]pyrimidin-5-yl)-1-isopentylpyridin-2(1H)-one]: the pIC50 (in assay [1]; at AAK1 (class symbols)) was ≥ 8.00 throughout.
`CC(C)(C)CCn1ccc(-c2ccn3ncc(Br)c3n2)cc1=O` [4-(3-bromopyrazolo[1,5-a]pyrimidin-5-yl)-1-(3,3-dimethylbutyl)pyridin-2(1H)-one]: the pIC50 on AAK1 (class symbols) is ≥ 7.00.
In the case of `C1=C(c2ccn3nccc3n2)CCNC1` [5-(1,2,3,6-tetrahydropyridin-4-yl)pyrazolo[1,5-a]pyrimidine], the negative-log IC50 (pIC50) at AAK1 (numeric bounds) was < 6.52.
Still for that read-out and setting: with `CC(C)Oc1cc(-c2ccn3ncc(CO)c3n2)ccn1` [(5-(2-isopropoxypyridin-4-yl)pyrazolo[1,5-a]pyrimidin-3-yl)methanol] the figure was < 6.52.
Turning to `COc1ncccc1-c1cnn2ccc(-c3ccc(C(=O)OC(C)C)cc3)nc12` [isopropyl 4-(3-(2-methoxypyridin-3-yl)pyrazolo[1,5-a]pyrimidin-5-yl)benzoate], the negative logarithm of the IC50 (pIC50) on AAK1 (class symbols) was ≥ 8.00.
On the same count and under the same terms, the value for `CC(C)OC(=O)c1ccc(-c2ccn3ncc(Br)c3n2)cc1` [isopropyl 4-(3-bromopyrazolo[1,5-a]pyrimidin-5-yl)benzoate] was ≥ 7.00; that for `CC(C)OC(=O)c1ccc(-c2ccn3ncc(I)c3n2)cc1` [isopropyl 4-(3-iodopyrazolo[1,5-a]pyrimidin-5-yl)benzoate] was ≥ 7.00.
The same measure, in the same setting: the value for `CC(C)OC(=O)c1ccc(-c2ccn3nccc3n2)cc1` [isopropyl 4-(pyrazolo[1,5-a]pyrimidin-5-yl)benzoate] was ≥ 6.00; that for `COc1ncccc1-c1cnn2ccc(CCCN(C)C(=O)OC(C)C)nc12` [isopropyl (3-(3-(2-methoxypyridin-3-yl)pyrazolo[1,5-a]pyrimidin-5-yl)propyl)(methyl)carbamate] was ≥ 7.00.
In the case of `COc1ncccc1-c1cnn2ccc(CCCCN(C)C(=O)OC(C)C)nc12` [isopropyl (4-(3-(2-methoxypyridin-3-yl)pyrazolo[1,5-a]pyrimidin-5-yl)butyl)(methyl)carbamate], the negative-log IC50 (pIC50) on AAK1 (class symbols) is ≥ 7.00.
Take `CC(C)OC(=O)N(C)CCCCc1ccn2ncc(Br)c2n1` [isopropyl (4-(3-bromopyrazolo[1,5-a]pyrimidin-5-yl)butyl)(methyl)carbamate]: the pIC50 on AAK1 (numeric bounds) was < 6.52.
Consider `CC(C)(C)OC(=O)N1CC=C(c2ccn3nccc3n2)CC1` [tert-butyl 4-(pyrazolo[1,5-a]pyrimidin-5-yl)-5,6-dihydropyridine-1(2H)-carboxylate], for which the pIC50 at AAK1 (class symbols) is ≥ 7.00.
